Test results: patent US20190337924A1, “SUBSTITUTED HYDANTOIN AND THIOHYDANTOIN DERIVATIVES AS ANDROGEN RECEPTOR ANTAGONISTS” (Janssen Pharmaceutica NV, priority 2016, published 2019)
Counter-ions that a name gives are not always drawn.

How the values were obtained:
VCaP cells = assay: Prostate Cancer Cell Viability Assay-VCaP; format: cell-based; conditions: Homo sapiens, 120 h, 10% Charcoal Stripped Serum, 5 days, CellTiter-Glo, * n = 1
Protocol: VCaP cells were counted and seeded into black 384-well plates with clear bottoms at a concentration of 125,000 cells per mL in phenol red-free DMEM containing 10% Charcoal Stripped Serum. 16 μL of the suspension was added per well and incubated for 48 h to allow the cells to adhere. After 48 hours, a 12 point serial semilog dilution of each compound was added to the cells in 16 μL at a final concentration of 100 µM to 0.0003 μM. The compounds of Formula (I) were also run in antagonist mode using 30 pM R1881 in which 8 μL of the compound was added to the cells followed by 8 μL of R1881. After 5 days of incubation at 37° C., 16 μL Of CellTiter-Glo (Promega) was added to the cells and the relative luminescence units (RLUs) of each well determined using the Envision. The percent stimulation and % inhibition were determined for each sample and plotted using GraphPad Prism.

LNCaP WT = assay: LNCaP Proliferation Assay, LNCaP WT; format: cell-based; conditions: Homo sapiens, 96 h, 1% CSS, 4 days, CellTiter-Glo, normalized to 0.1 nM R1881 stimulation
Protocol: (§1) LNCaP cells were expanded in RPMI 10% FBS in T150 flasks. The cells were dislodged with 0.25% Trypsin, washed in complete media, centrifuged (300 g, 3 min), and the supernatant aspirated. The cells were resuspended in RPMI phenol-red free media with 1% charcoal-stripped serum (CSS) and counted using a ViCELL (Beckman-Coulter). 7500 cells were added to each well of a white optical bottom 384-well plate and incubated for 2 days at 37° C. 5% CO2. Compound dilutions were prepared in RPMI CSS using 50 mM stock solutions and added to the cells either alone (agonist mode) or in combination with 0.1 nM R1881 (antagonist mode). The plates were incubated for 4 days, followed by addition of CellTiter-Glo Luminescent Cell Viability kit reagent (Promega). The plates were placed on a shaker at 3000 rpm for 10 minutes and then read on an EnVision plate reader (Perkin Elmer) using Luminescence assay default settings. The data was analyzed, normalized to 0.1 nM R1881 stimulation, and plotted in GraphPad Prism.

LNCaP F876L = assay: LNCaP Proliferation Assay, LNCaP F876L; format: cell-based; conditions: Homo sapiens, 96 h, 1% CSS, 4 days, CellTiter-Glo, normalized to 0.1 nM R1881 stimulation
Protocol: as §1

SMILES	IC50 (VCaP cells) [nM]	IC50 (LNCaP WT) [µM]	IC50 (LNCaP F876L) [µM]	melting point [°C]
CN1CCC(Oc2ccc(N3C(=S)N(c4ccc(C#N)c(C(F)(F)F)c4)C(=O)C34CCC4)cn2)CC1 [Compound 14, 4-(5-(6-((1-Methylpiperidin-4-yl)oxy)pyridin-3-yl)-8-oxo-6-thioxo-5,7-diazaspiro[3.4]octan-7-yl)-2-(trifluoromethyl)benzonitrile]	13100	2.44	1.25	–
CC1(C)C(=O)N(c2ccc(C#N)c(Cl)c2)C(=S)N1c1ccc(OC2CCNCC2)cc1 [Compound 7, 2-Chloro-4-(4,4-dimethyl-5-oxo-3-(4-(piperidin-4-yloxy)phenyl)-2-thioxoimidazolidin-1-yl)benzonitrile hydrochloride]	1440	10	31.2	–
N#Cc1ccc(N2C(=O)C3(CCC3)N(c3ccc(OC4CCNCC4)nc3)C2=S)cc1Cl [Compound 23, 2-Chloro-4-(8-oxo-5-(6-(piperidin-4-yloxy)pyridin-3-yl)-6-thioxo-5,7-diazaspiro[3.4]octan-7-yl)benzonitrile hydrochloride]	540	3.19	–	–
CN1CCC(Oc2ccc(N3C(=S)N(c4ccc(C#N)c(Cl)c4)C(=O)C3(C)C)cn2)CC1 [Compound 10, 2-Chloro-4-(4,4-dimethyl-3-(6-((1-methylpiperidin-4-yl)oxy)pyridin-3-yl)-5-oxo-2-thioxoimidazolidin-1-yl)benzonitrile hydrochloride]	5540	0.46	0.83	–
CC1(C)C(=O)N(c2ccc(C#N)c(C(F)(F)F)c2)C(=S)N1c1ccc(OC2CCNCC2)cc1 [Compound 1, 4-(4,4-Dimethyl-5-oxo-3-(4-(piperidin-4-yloxy)phenyl)-2-thioxoimidazolidin-1-yl)-2-(trifluoromethyl)benzonitrile]	2310	–	–	–
CC1(C)C(=O)N(c2ccc(C#N)c(Cl)c2)C(=S)N1c1ccc(OC2CCNCC2)nc1 [Compound 9, 2-Chloro-4-(4,4-dimethyl-5-oxo-3-(6-(piperidin-4-yloxy)pyridin-3-yl)-2-thioxoimidazolidin-1-yl)benzonitrile hydrochloride]	1680	–	–	–
N#Cc1ccc(N2C(=O)C3(CCC3)N(c3ccc(OC4CCNCC4)cc3)C2=S)cc1Cl [Compound 21, 2-Chloro-4-(8-oxo-5-(4-(piperidin-4-yloxy)phenyl)-6-thioxo-5,7-diazaspiro[3.4]octan-7-yl)benzonitrile]	1250	2.23	3.78	211
CN1CCC(Oc2ccc(N3C(=S)N(c4ccc(C#N)c(Cl)c4)C(=O)C34CCC4)cc2)CC1 [Compound 22, 2-Chloro-4-(5-(4-((1-methylpiperidin-4-yl)oxy)phenyl)-8-oxo-6-thioxo-5,7-diazaspiro[3.4]octan-7-yl)benzonitrile]	580	2.83	3.78	152.2
CN1CCC(Oc2ccc(N3C(=S)N(c4ccc(C#N)c(C(F)(F)F)c4)C(=O)C3(C)C)cc2)CC1 [Compound 2, 4-(4,4-Dimethyl-3-(4-((1-methylpiperidin-4-yl)oxy)phenyl)-5-oxo-2-thioxoimidazolidin-1-yl)-2-(trifluoromethyl)benzonitrile hydrochloride]	–	1.37	1.31	–
CC1(C)C(=O)N(c2ccc(C#N)c(C(F)(F)F)c2)C(=S)N1c1cnc(OC2CCNCC2)nc1 [Compound 5, 4-(4,4-Dimethyl-5-oxo-3-(2-(piperidin-4-yloxy)pyrimidin-5-yl)-2-thioxoimidazolidin-1-yl)-2-(trifluoromethyl)benzonitrile]	13200	1.04	0.95	239
N#Cc1ccc(N2C(=O)C3(CCC3)N(c3ccc(OC4CCNCC4)cc3)C2=S)cc1C(F)(F)F [Compound 11, 4-(8-Oxo-5-(4-(piperidin-4-yloxy)phenyl)-6-thioxo-5,7-diazaspiro[3.4]octan-7-yl)-2-(trifluoromethyl)benzonitrile]	1060	–	–	172.4
CC1(C)C(=O)N(c2ccc(C#N)c(C(F)(F)F)c2)C(=S)N1c1ccc(OC2CCNCC2)nc1 [Compound 3, 4-(4,4-Dimethyl-5-oxo-3-(6-(piperidin-4-yloxy)pyridin-3-yl)-2-thioxoimidazolidin-1-yl)-2-(trifluoromethyl)benzonitrile hydrochloride]	4860	–	–	–
COc1cc(N2C(=O)C3(CCC3)N(c3ccc(OC4CCN(C)CC4)cc3)C2=S)ccc1C#N [Compound 19, 2-Methoxy-4-(5-(4-((1-methylpiperidin-4-yl)oxy)phenyl)-8-oxo-6-thioxo-5,7-diazaspiro[3.4]octan-7-yl)benzonitrile]	9870	27.4	21.4	–
CN1CCC(Oc2ccc(N3C(=S)N(c4ccc(C#N)c(C(F)(F)F)c4)C(=O)C34CCC4)cc2)CC1 [Compound 12, 4-(5-(4-((1-Methylpiperidin-4-yl)oxy)phenyl)-8-oxo-6-thioxo-5,7-diazaspiro[3.4]octan-7-yl)-2-(trifluoromethyl)benzonitrile]	21000	–	–	99.3
CN1CCC(Oc2ccc(N3C(=S)N(c4ccc(C#N)c(Cl)c4)C(=O)C3(C)C)cc2)CC1 [Compound 8, 2-Chloro-4-(4,4-dimethyl-3-(4-((1-methylpiperidin-4-yl)oxy)phenyl)-5-oxo-2-thioxoimidazolidin-1-yl)benzonitrile hydrochloride]	3480	–	–	–
N#Cc1ccc(N2C(=O)C3(CCC3)N(c3cnc(OC4CCNCC4)nc3)C2=S)cc1C(F)(F)F [Compound 15, 4-(8-Oxo-5-(2-(piperidin-4-yloxy)pyrimidin-5-yl)-6-thioxo-5,7-diazaspiro[3.4]octan-7-yl)-2-(trifluoromethyl)benzonitrile]	–	3.43	1.53	137.4
Cc1cc(N2C(=O)C3(CCC3)N(c3ccc(OC4CCN(C)CC4)nc3)C2=S)ccc1C#N [Compound 18, 2-Methyl-4-(5-(6-((1-methylpiperidin-4-yl)oxy)pyridin-3-yl)-8-oxo-6-thioxo-5,7-diazaspiro[3.4]octan-7-yl)benzonitrile]	12100	1.53	0.84	–
CN1CCC(Oc2ncc(N3C(=S)N(c4ccc(C#N)c(C(F)(F)F)c4)C(=O)C34CCC4)cn2)CC1 [Compound 16, 4-(5-(2-((1-Methylpiperidin-4-yl)oxy)pyrimidin-5-yl)-8-oxo-6-thioxo-5,7-diazaspiro[3.4]octan-7-yl)-2-(trifluoromethyl)benzonitrile]	5290	–	–	161.9
CN1CCC(Oc2ccc(N3C(=S)N(c4ccc(C#N)c(C(F)(F)F)c4)C(=O)C3(C)C)cn2)CC1 [Compound 4, 4-(4,4-Dimethyl-3-(6-((1-methylpiperidin-4-yl)oxy)pyridin-3-yl)-5-oxo-2-thioxoimidazolidin-1-yl)-2-(trifluoromethyl)benzonitrile hydrochloride]	1660	0.46	0.85	–
N#Cc1ccc(N2C(=O)C3(CCC3)N(c3ccc(OC4CCNCC4)nc3)C2=S)cc1C(F)(F)F [Compound 13, 4-(8-Oxo-5-(6-(piperidin-4-yloxy)pyridin-3-yl)-6-thioxo-5,7-diazaspiro[3.4]octan-7-yl)-2-(trifluoromethyl)benzonitrile hydrochloride]	540	109	–	–
COc1cc(N2C(=O)C3(CCC3)N(c3ccc(OC4CCN(C)CC4)nc3)C2=S)ccc1C#N [Compound 20, 2-Methoxy-4-(5-(6-((1-methylpiperidin-4-yl)oxy)pyridin-3-yl)-8-oxo-6-thioxo-5,7-diazaspiro[3.4]octan-7-yl)benzonitrile]	1400	3.65	1.69	–
CN1CCC(Oc2ncc(N3C(=S)N(c4ccc(C#N)c(C(F)(F)F)c4)C(=O)C3(C)C)cn2)CC1 [Compound 6, 4-(4,4-Dimethyl-3-(2-((1-methylpiperidin-4-yl)oxy)pyrimidin-5-yl)-5-oxo-2-thioxoimidazolidin-1-yl)-2-(trifluoromethyl)benzonitrile]	18400	–	–	204.9
Cc1cc(N2C(=O)C3(CCC3)N(c3ccc(OC4CCN(C)CC4)cc3)C2=S)ccc1C#N [Compound 17, 2-Methyl-4-(5-(4-((1-methylpiperidin-4-yl)oxy)phenyl)-8-oxo-6-thioxo-5,7-diazaspiro[3.4]octan-7-yl)benzonitrile]	3420	–	–	–
